Measurements from US4818770A, “Prevention of a plant disease by specific inhibition of fungal polyamine biosynthesis” (priority 1986, dated 1989).
Like-named read-outs stand apart in the source and are kept apart here.

Tests used:
[1] = tested on: Uromyces phaseoli; test: Bean rust lesions on unifoliolate leaves of Pinto bean sprayed before or after inoculation; type: in vivo
[2] = tested on: Verticillium dahliae; test: Radial mycelial growth of Verticillium dahliae in vitro; type: cell-based; settings: Verticillium dahliae, read-out: inhibition of radial growth relative to that observed with DFMO
[3] = tested on: Verticillium dahliae; test: Verticillium wilt symptoms in Bonny Best tomato after foliar spray; type: in vivo; settings: concentrations up to 10 mM
[4] = tested on: P. graminis f. sp. tritici; type: in vivo, Puccinia graminis f. sp. tritici
[5] = tested on: PA titers of bean leaves; test: Polyamine titers in leaves of sprayed bean plants; type: in vivo, Phaseolus vulgaris; settings: sprays 0.01, 0.1 and 1.0 mM; 1, 3 and 8 days later
Procedure: PA analysis was performed on leaf samples collected from inhibitor-sprayed bean plants. Leaf samples were ground in prechilled mortars with 10% (w/v) HClO4 at a ratio of 200 mg fresh weight leaf per ml HClO4. Homogenates were centrifuged at 26,00 g for 20 minutes at 4° C. The clear supernatant fractions were used for dansylation according to a procedure previously described. Briefly, 0.4 ml of freshly prepared dansyl (Diaminonaphthylsulfonyl)-C1 (Sigma), 5 mg/ml in acetone, and 0.2 ml of saturated Na2 CO3 were added to 0.2 ml of the supernatant fraction. The dansylated PA were extracted with 0.25 ml benzene and the clear benzene layer was used for PA determinations by TLC on LK6D high resolution silica gel plates (Whatman). After development in chloroform:triethylamine (25:2 v/v) for about 1 hour and location by fluorescence under a UV lamp, the dansylpolyamine bands were scraped off, eluted in 4 ml of ethyl acetate and quantified with an Aminco-Bowman fluorimeter.
The effect of DFMO and DFMA sprays (0.01, 0.1, and 1.0 mM) on PA titers was also examined. Unifoliolate leaves were sprayed in the usual way and examined 1 and 3 days later, while the first trifolioloate leaves, unexpanded ata the time of spray and themselves unsprayed, were examined 8 days later.

[6] = tested on: Puccinia graminis fsp avenae; type: in vivo
[7] = tested on: Puccinia sorghi; test: Infection by corn rust; type: in vivo
[8] = tested on: Podosphaera leucotricha; test: Infection of apple by powdery mildew; type: in vivo
[9] = tested on: bean rust uredospores; test: Germination and differentiation of bean rust uredospores in agar; type: cell-based, Uromyces phaseoli; settings: for inhibition at 100 µM / inhibition at 500 µM / inhibition at 1000 µM / inhibition at 5000 µM: Uromyces phaseoli
[10] = tested on: Erysiphe polygoni; test: Infection by bean powdery mildew; type: in vivo
[11] = tested on: Botrytis sp., B. cinerea, Rhizoctonia solani, Monilinia fructicola; settings: cited from earlier work
[12] = tested on: Erysiphe graminis; test: Wheat powdery mildew infection, colonies per plant; settings: concentrations up to 5 mM
Procedure: With wheat powdery mildew (E. graminis) 10-day-old seedlings were sprayed with solutions of DFMA or DFMO from 0.01 to 5.0 mM before and after inoculation of the plants with conidia. Inoculation occurred naturally in the greenhouse by distributing infected plants among the experimental plants for 24 hours. Infection was evaluated 10 days after inoculation by counting mildew colonies.

[13] = tested on: Colletotrichum lagenarium; test: Infection of National Pickling cucumber plants by cucumber anthracnose
[14] = postinoculation exposure, inhibitor 1.0 mM
[15] = postinoculation exposure, inhibitor 5.0 mM
[16] = preinoculation exposure, inhibitor 1.0 mM
[17] = preinoculation exposure, inhibitor 5.0 mM
[18] = read-out: Differentiation % Inhibiton
[19] = read-out: Germination % Inhibition

With `N=C(N)NCCC[C@](N)(C(=O)O)C(F)F` [DFMA, alpha-difluoromethylarginine] the “reduction of bean rust infection” value ([1]; even at 5.0 mM) was “ineffective”, the “germination or pathogenicity of uredospores collected from treated plants” value ([1]; plants treated with low concentrations) was “no decrease in germination or pathogenicity” and the “Lesions per cm^2” value [1, 14] was 56 ± 3 per cm^2. For the same molecule, the Lesions per leaf [1, 14] was 2829 ± 242 per leaf, the “Lesions per cm^2” value [1, 15] was 50 ± 2 per cm^2 and the Lesions per leaf [1, 15] was 2195 ± 169 per leaf. For the same molecule, the “Lesions per cm^2” value [1, 16] was 51 ± 4 per cm^2, the Lesions per leaf [1, 16] was 3101 ± 217 per leaf and the “Lesions per cm^2” value [1, 17] was 46 ± 4 per cm^2. For the same molecule, the Lesions per leaf [1, 17] was 2928 ± 317 per leaf, the inhibition at 500 µM [2] was ~50% and the “symptom severity and time of symptom expression” value [3] was “did not alter either symptom severity nor time of symptom expression”. For the same molecule, the “control of wheat stem rust” value ([4]; 0.01 to 1.0 mM) was “relatively ineffective”, the “% control” value ([4]; post-inoculation, 0.01 mM) was 27% and the Uredia/plant ([4]; post-inoculation, 0.01 mM) was 154 Uredia/plant. The “% control” value ([4]; post-inoculation, 0.025 mM) was 36%, the Uredia/plant ([4]; post-inoculation, 0.025 mM) was 134 Uredia/plant and the “% control” value ([4]; post-inoculation, 0.065 mM) was 29%. The Uredia/plant ([4]; post-inoculation, 0.065 mM) was 150 Uredia/plant, the “% control” value ([4]; post-inoculation, 0.10 mM) was 28% and the Uredia/plant ([4]; post-inoculation, 0.10 mM) was 152 Uredia/plant. The “% control” value ([4]; post-inoculation, 0.13 mM) was 42%, the Uredia/plant ([4]; post-inoculation, 0.13 mM) was 122 Uredia/plant and the “% control” value ([4]; post-inoculation, 0.16 mM) was 42%. For the same molecule, the Uredia/plant ([4]; post-inoculation, 0.16 mM) was 122 Uredia/plant, the “% control” value ([4]; post-inoculation, 0.20 mM) was 41% and the Uredia/plant ([4]; post-inoculation, 0.20 mM) was 124 Uredia/plant. The “% control” value ([4]; post-inoculation, 1.00 mM) was 40%, the Uredia/plant ([4]; post-inoculation, 1.00 mM) was 126 Uredia/plant and the “% control” value ([4]; pre-inoculation, 0.01 mM) was 9%. The Uredia/plant ([4]; pre-inoculation, 0.01 mM) was 192 Uredia/plant, the “% control” value ([4]; pre-inoculation, 0.025 mM) was 20% and the Uredia/plant ([4]; pre-inoculation, 0.025 mM) was 167 Uredia/plant. The “% control” value ([4]; pre-inoculation, 0.065 mM) was 20%, the Uredia/plant ([4]; pre-inoculation, 0.065 mM) was 168 Uredia/plant and the “% control” value ([4]; pre-inoculation, 0.10 mM) was 21%. The Uredia/plant ([4]; pre-inoculation, 0.10 mM) was 165 Uredia/plant, the “% control” value ([4]; pre-inoculation, 0.13 mM) was 8% and the Uredia/plant ([4]; pre-inoculation, 0.13 mM) was 193 Uredia/plant. For the same molecule, the “% control” value ([4]; pre-inoculation, 0.16 mM) was 11%, the Uredia/plant ([4]; pre-inoculation, 0.16 mM) was 186 Uredia/plant and the “% control” value ([4]; pre-inoculation, 0.20 mM) was 18%. For the same molecule, the Uredia/plant ([4]; pre-inoculation, 0.20 mM) was 172 Uredia/plant, the “% control” value ([4]; pre-inoculation, 1.00 mM) was 30% and the Uredia/plant ([4]; pre-inoculation, 1.00 mM) was 148 Uredia/plant. For the same molecule, the “PA levels in treated leaves” value [5] was “no significant reductions”, the Percent control ([6]; 0.01 mM) was 40.4% and the Percent control ([6]; 0.025 mM) was 32.6%. The Percent control ([6]; 0.065 mM) was 41.9%, the Percent control ([6]; 0.10 mM) was 53.1% and the Percent control ([6]; 0.13 mM) was 61.5%. For the same molecule, the Percent control ([6]; 0.16 mM) was 57.0%, the Percent control ([6]; 0.20 mM) was 63.8% and the Percent control ([6]; 1.00 mM) was 86.0%. The “effectiveness against oat stem rust compared with DFMO” value ([6]; in vivo) was “nearly as effective as DFMO”, the “Percent control” value ([7]; 0.01 mM) was 13.0% and the “Percent control” value ([7]; 0.025 mM) was 7.2%. The “Percent control” value ([7]; 0.065 mM) was 0.0%, the “Percent control” value ([7]; 0.10 mM) was 0.0% and the “Percent control” value ([7]; 0.13 mM) was 9.3%. For the same molecule, the “Percent control” value ([7]; 0.16 mM) was 27.1%, the “Percent control” value ([7]; 0.20 mM) was 14.0% and the “control of corn rust” value ([7]; up to 0.20 mM) was “essentially ineffective”. The “Percent control” value ([8]; 1 mM) was 0.8%, the “Percent control” value ([8]; 5 mM) was 28.8% and the “Percent control” value ([8]; 10 mM) was 0.0%. For the same molecule, the “control of apple powdery mildew” value ([8]; 1-10 mM applications) was “essentially ineffective”, the Differentiation % ([9]; 0.1 mM) was 46% and the Germination % ([9]; 0.1 mM) was 36%. It also gave a Differentiation % ([9]; 0.5 mM) of 30%, a Germination % ([9]; 0.5 mM) of 36% and a Differentiation % ([9]; 1.0 mM) of 23%. The Germination % ([9]; 1.0 mM) was 31%, the Differentiation % ([9]; 5.0 mM) was 18% and the Germination % ([9]; 5.0 mM) was 26%. The inhibition at 100 µM [9, 18] was 22%, the inhibition at 500 µM [9, 18] was 49% and the inhibition at 1000 µM [9, 18] was 61%. The inhibition at 5000 µM [9, 18] was 69%, the inhibition at 100 µM [9, 19] was 14% and the inhibition at 500 µM [9, 19] was 14%. The inhibition at 1000 µM [9, 19] was 26%, the inhibition at 5000 µM [9, 19] was 38% and the Percent control ([10]; 1 mM) was 7%. The Percent control ([10]; 5 mM) was 35%, the Percent control ([10]; 10 mM) was 35% and the “mycelial growth in vitro” value ([11]; Botrytis sp., B. cinerea, Rhizoctonia solani, Monilinia fructicola) was “inhibited mycelial growth”. For the same molecule, the “relative inhibition of fungal growth in vitro” value ([11]; Plant Cell Physiol. (1985), vol. 26, 683-692) was “more effective inhibitor of fungal growth than was DFMO”, the “control of wheat powdery mildew infection” value [12] was “ineffective” and the Lesions per plant ([13]; 1.0 mM) was 73 per plant. The Percent control ([13]; 1.0 mM) was 10%, the Lesions per plant ([13]; 5.0 mM) was 71 per plant and the Percent control ([13]; 5.0 mM) was 12%. For the same molecule, the Lesions per plant ([13]; 10.0 mM) was 73 per plant and the Percent control ([13]; 10.0 mM) was 10%.
